Source: patent US20150216167A1 (Heinrich Heine Universitat Dusseldorf, priority 2011, published 2015)

Tests used:
PEP carboxylase = settings: Pairoba et al. (1996); cited from earlier work
[1] = target: T1, C4-PEPC (PEP carboxylase from F. trinervia) (Flaveria trinervia, UniProt P30694); assay: Spectrophotometric coupled assay with malate dehydrogenase, purified PEP carboxylases; assay type: biochemical; settings: C4 (F. trinervia) versus C3 (F. pringlei) enzyme
T1 construct: histidine tag; made in house; host or cells: E. coli
T1 sequence (P30694 1-966): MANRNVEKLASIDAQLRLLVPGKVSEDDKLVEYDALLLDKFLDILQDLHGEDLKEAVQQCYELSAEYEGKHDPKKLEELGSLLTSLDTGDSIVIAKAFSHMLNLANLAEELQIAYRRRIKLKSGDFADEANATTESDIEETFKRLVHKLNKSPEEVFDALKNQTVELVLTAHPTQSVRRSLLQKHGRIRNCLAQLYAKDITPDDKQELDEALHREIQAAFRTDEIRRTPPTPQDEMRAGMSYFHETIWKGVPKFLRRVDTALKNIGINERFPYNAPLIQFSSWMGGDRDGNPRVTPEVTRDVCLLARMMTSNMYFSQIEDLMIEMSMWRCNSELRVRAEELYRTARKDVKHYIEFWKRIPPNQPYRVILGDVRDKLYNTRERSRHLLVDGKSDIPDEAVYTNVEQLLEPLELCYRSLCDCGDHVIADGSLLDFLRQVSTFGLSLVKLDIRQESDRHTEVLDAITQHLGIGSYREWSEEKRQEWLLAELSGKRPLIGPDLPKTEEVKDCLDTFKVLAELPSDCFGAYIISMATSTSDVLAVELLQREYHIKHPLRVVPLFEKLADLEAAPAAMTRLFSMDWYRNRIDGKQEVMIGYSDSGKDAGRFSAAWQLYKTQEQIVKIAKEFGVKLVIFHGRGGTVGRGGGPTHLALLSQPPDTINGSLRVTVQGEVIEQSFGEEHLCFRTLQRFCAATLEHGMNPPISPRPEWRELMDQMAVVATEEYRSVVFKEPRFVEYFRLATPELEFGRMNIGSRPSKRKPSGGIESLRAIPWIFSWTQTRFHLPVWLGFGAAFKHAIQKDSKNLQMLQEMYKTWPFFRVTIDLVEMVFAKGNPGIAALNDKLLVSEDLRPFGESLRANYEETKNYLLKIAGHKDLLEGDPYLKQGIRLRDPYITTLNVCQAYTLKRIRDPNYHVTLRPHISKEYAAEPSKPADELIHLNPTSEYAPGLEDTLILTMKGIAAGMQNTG
Text: (§1) Inhibition of purified PEP carboxylases from F. pringlei and F. trinervia by compounds selected from the VDS was monitored by a spectrophotometric coupled assay with malate dehydrogenase which reduces the oxaloacetate formed by PEP carboxylase to malate. The simultaneous oxidation of NADH is followed at 340 nm with standard optical equipment. The concentration of the inhibitors selected from the VDS was varied in the coupled assay to determine the half maximal inhibitory concentration (IC50).
as §1, with “(1050).” for “(IC50).”

[2] = test system: pyruvate phosphate dikinase (PPDK); settings: cited from earlier work
bile salt hydrolase = settings: cited from earlier work
[3] = high clog values; cited from earlier work

## O=c1c(O)c(-c2ccc(O)c(O)c2)oc2cc(O)ccc12 [fisetin]
PEP carboxylase
  inhibition of PEP carboxylase from C4 plant Amaranthus viridis: inhibited

## O=c1c(O)c(-c2ccc(O)c(O)c2)oc2cc(O)cc(O)c12 [quercetin]
PEP carboxylase
  inhibition of PEP carboxylase from C4 plant Amaranthus viridis: inhibited

## Oc1cc(O)c2c(c1)O[C@H](c1ccc(O)c(O)c1)[C@@H](O)C2 [compound 1, (2R,3S)-2-(3,4-dihydroxyphenyl)-3,4-dihydro-2H-chromene-3,5,7-triol]
[1]; measured at 50 micromolar and 500 micromolar, FIG. 2
  Selective Inhibition of a C4-PEPC: Selective Inhibition

## C/C=C(\C)c1cc(O)c(C)c2c1Oc1cc(O)cc(C)c1C(=O)O2 [unguinol]
[2]; PPDK from C4 plants maize, millet and proso millet
  selective inhibitors of PPDK: selective inhibitors
[2]; isolated enzyme, read-out: half maximal inhibitory concentration (1050)
  IC50: 40 µM
Bile salt hydrolase
  inhibits the enzyme bile salt hydrolase: inhibits

## Nc1nc2ncc(CNc3ccc(C(=O)N[C@@H](CCC(=O)O)C(=O)O)cc3)nc2c(=O)[nH]1 [compound 4, Folic Acid]
[1]; measured at 0.025 mM, FIG. 3
  Selective Inhibition of a C4-PEPC: Selective Inhibition

## O=c1c(O)c(-c2ccc(O)cc2O)oc2cc(O)cc(O)c12 [morin]
PEP carboxylase
  inhibition of PEP carboxylase from C4 plant Amaranthus viridis: inhibited

## O=c1c(O)c(-c2ccc(O)cc2)oc2cc(O)cc(O)c12 [kaempferol]
PEP carboxylase
  inhibition of PEP carboxylase from C4 plant Amaranthus viridis: inhibited

## C=C1CCC[C@H]2[C@](C)(CC3=C(O)C(=O)C=C(OC)C3=O)[C@@H](C)CC[C@]12C [ilimaquinone]
[3]
  solubility in water: low solubility in water

## baicalein/baicalin
PEP carboxylase
  inhibition of PEP carboxylase from C4 plant Amaranthus viridis: inhibited

## O=c1c(O)c(-c2cc(O)c(O)c(O)c2)oc2cc(O)cc(O)c12 [myricetin]
PEP carboxylase
  inhibition of PEP carboxylase from C4 plant Amaranthus viridis: inhibited
